The species named for data set [1] is Rattus norvegicus. Kind of data set: Positive allosteric modulation of GABAB receptor in rat cortical membranes assessed as stimulation of [35S]GTPgammaS binding up to 100 uM after 30 mins by liquid scintillation counting analysis. It counts as functional, cell membranes. Particulars: Membrane. In general terms: Binding of GTPγS marks nucleotide exchange on a G protein.

Data set [2] is filed under the species Rattus norvegicus. Kind of data set: Positive allosteric modulation of GABAB receptor in rat cortical membranes assessed as potentiation of GABA-induced [35S]GTPgammaS binding after 30 mins by liquid scintillation counting analysis. It counts as functional, cell membranes. Particulars: Membrane.
The species named for data set [3] is Rattus norvegicus. As to the kind of experiment: Positive allosteric modulation of GABAB receptor in rat cortical membranes assessed as potentiation of GABA-induced [35S]GTPgammaS binding at 25 uM after 30 mins by liquid scintillation counting analysis relative to GABA. It counts as functional, cell membranes. As to conditions: Membrane.
The next data set has as its system NIH3T3. Kind of data set: Cytotoxicity against mouse NIH/3T3 cells after 24 hrs by neutral red staining-based UV/visible spectrophotometric analysis. It counts as cell-based. Particulars: NIH3T3, 24 h.
The species named for data set [4] is Rattus norvegicus. As to the kind of experiment: Positive allosteric modulation of GABAB receptor in rat cortical membranes assessed as potentiation of GABA-induced [35S]GTPgammaS binding at 2.5 uM after 30 mins by liquid scintillation counting analysis relative to GABA. Particulars: Membrane. It counts as functional, cell membranes.
A short description of data set [5]: Ratio of compound IC50 to COR627 IC50 for mouse NIH/3T3 cells. As to conditions: read-out: Ratio IC50. It counts as ADME, cell-based, NIH3T3.
Data set [6] can be described thus: Ratio of compound IC50 to COR628 IC50 for mouse NIH/3T3 cells. It counts as ADME, cell-based, NIH3T3. Particulars: read-out: Ratio IC50.

Active and inactive are the calls of the source. The rule behind the calls is not given here.

On to `CCc1c(C)sc(NS(=O)(=O)C2CCCCC2)c1C(=O)OC`, for which the result in the data set listed under Rattus norvegicus [1] and in the data set filed under Rattus norvegicus [2] was inactive.

For `CCc1c(C)sc(NC(=O)C(C)(C)C)c1C(=O)OC`, the outcome in the data set filed under Rattus norvegicus [1] and in the data set filed under Rattus norvegicus [2] was inactive.

Regarding `CCc1c(C)sc(NC(=O)C23CC4CC(CC(C4)C2)C3)c1C(=O)OC`, the values for the Activity in the data set listed under Rattus norvegicus [3] and in the data set listed under Rattus norvegicus [4] were 22% and 9.2%, respectively. In the data set with NIH3T3, the IC50 turned out to be 32 µM.

Consider `CCc1c(C)sc(NC(=O)c2ccc(-c3cccnc3)cc2)c1C(=O)OC`, for which the result in the data set filed under Rattus norvegicus [1] and in the data set listed under Rattus norvegicus [2] was inactive.

As to `CCCOC(=O)c1c(NC(=O)c2ccc(C)cc2)sc(C)c1CC`, the outcome in the data set listed under Rattus norvegicus [1] and in the data set filed under Rattus norvegicus [2] was inactive.

Take `CCc1c(C)sc(NC(=O)c2ccc(Cl)cc2)c1C(=O)OC(C)(C)C`: the outcome in the data set listed under Rattus norvegicus [1] and in the data set listed under Rattus norvegicus [2] was inactive.

With `COC(=O)c1c(NC(=O)C2CCCCC2)sc2c1CCCC2`, the values for the Activity in the data set listed under Rattus norvegicus [3] and in the data set filed under Rattus norvegicus [4] were 12% and -5.6%, respectively. This compound yielded an IC50 in the data set on NIH3T3 of 62 µM. Also, the outcome in the data set listed under Rattus norvegicus [1] and in the data set filed under Rattus norvegicus [2] was inactive.

Turning to `CCc1c(C)sc(NC(=O)c2ccc(-c3ccc(C)cc3)cc2)c1C(=O)OC`, the outcome in the data set filed under Rattus norvegicus [1] and in the data set filed under Rattus norvegicus [2] was inactive.

On to `CCc1c(C)sc(NS(=O)(=O)c2ccc(C)cc2)c1C(=O)OC`, for which the outcome in the data set listed under Rattus norvegicus [1] and in the data set filed under Rattus norvegicus [2] was inactive.

For the compound `CCc1c(C)sc(NC(=O)c2cccc(Cl)c2)c1C(=O)OC`, the Activity in the data set filed under Rattus norvegicus [3] turned out to be 11%; in the data set listed under Rattus norvegicus [4] it was 4%. Also, the result in the data set listed under Rattus norvegicus [1] and in the data set listed under Rattus norvegicus [2] was inactive.

As for `CCc1c(C)sc(NS(=O)(=O)c2ccccc2)c1C(=O)OC`, the results for the Activity in the data set listed under Rattus norvegicus [3] and in the data set listed under Rattus norvegicus [4] were 5.9% and 2.9%, respectively. The compound also had an IC50 in the data set on NIH3T3 of 146 µM. Also, the result in the data set listed under Rattus norvegicus [1] and in the data set listed under Rattus norvegicus [2] was inactive.

On to `COC(=O)c1c(NC(=O)c2ccccc2)sc2c1CCCC2`, for which the outcome in the data set filed under Rattus norvegicus [1] and in the data set filed under Rattus norvegicus [2] was inactive.

`COc1ccc(C(=O)Nc2sc3c(c2C#N)CCCC3)cc1OC`: the outcome in the data set listed under Rattus norvegicus [1] and in the data set listed under Rattus norvegicus [2] was inactive.

In the case of `CCc1c(C)sc(NC(=O)C2CC2)c1C(=O)OC`, the outcome in the data set listed under Rattus norvegicus [1] and in the data set listed under Rattus norvegicus [2] was inactive.

For `CCc1c(C)sc(NC(C)=O)c1C(=O)OC`, the outcome in the data set listed under Rattus norvegicus [1] and in the data set filed under Rattus norvegicus [2] was inactive.

Regarding `CCc1c(C)sc(NC(=O)C2CCCC2)c1C(=O)OC`, the Activity in the data set filed under Rattus norvegicus [3] is 12.1%; in the data set listed under Rattus norvegicus [4], 3%. The compound further registered an IC50 in the data set with NIH3T3 of 34 µM. Also, the result in the data set listed under Rattus norvegicus [1] and in the data set listed under Rattus norvegicus [2] was inactive.

With `CCc1c(C)sc(NC(=O)c2ccc([N+](=O)[O-])cc2)c1C(=O)OC`, the result in the data set filed under Rattus norvegicus [1] and in the data set filed under Rattus norvegicus [2] was inactive.

For `CCc1c(C)sc(NC(=O)c2ccc(OC)cc2)c1C(=O)OC`, the result in the data set listed under Rattus norvegicus [1] and in the data set listed under Rattus norvegicus [2] was inactive.

For `COC(=O)c1c(NC(=O)c2ccc(OC)c(OC)c2)sc2c1CCCC2`, the Activity in the data set listed under Rattus norvegicus [3] is 9%; in the data set filed under Rattus norvegicus [4] it was -4.1%. Further, the outcome in the data set listed under Rattus norvegicus [1] and in the data set filed under Rattus norvegicus [2] was inactive.

For the compound `Cc1ncc(-c2ccc(C(F)(F)F)cc2)c(N[C@@H]2C[C@H]3CC[C@@H]2C3)n1`, the IC50 in the data set on NIH3T3 was 35 µM.

Take `COC(=O)c1ccsc1NC(=O)c1ccccc1`: the result in the data set listed under Rattus norvegicus [1] and in the data set listed under Rattus norvegicus [2] was inactive.

Take `CCc1c(C)sc(NC(=O)c2ccccc2)c1C(=O)OC`: the values for the Activity in the data set listed under Rattus norvegicus [3] and in the data set filed under Rattus norvegicus [4] were 12% and 3.1%, respectively. Also, in the data set on NIH3T3, the IC50 was found to be 66 µM. For the same compound, the result in the data set listed under Rattus norvegicus [1] and in the data set filed under Rattus norvegicus [2] was inactive.

For `CCc1c(C)sc(NC(=O)Oc2ccccc2)c1C(=O)OC`, the results for the Activity in the data set listed under Rattus norvegicus [3] and in the data set listed under Rattus norvegicus [4] were 8.2% and 3.9%, respectively. Further, the result in the data set listed under Rattus norvegicus [1] and in the data set filed under Rattus norvegicus [2] was inactive.

With `CCc1c(C)sc(NC(=O)Cc2ccccc2)c1C(=O)OC`, the outcome in the data set listed under Rattus norvegicus [1] and in the data set listed under Rattus norvegicus [2] was inactive.

For the compound `CCc1c(C)sc(NC(=O)c2ccc(Br)cc2)c1C(=O)OC`, the outcome in the data set listed under Rattus norvegicus [1] and in the data set filed under Rattus norvegicus [2] was inactive.

Take `CCc1c(C)sc(NC(=O)c2ccc(C)cc2)c1C(=O)OC(C)(C)C`: the result in the data set filed under Rattus norvegicus [1] and in the data set filed under Rattus norvegicus [2] was inactive.

As for `COC(=O)c1ccsc1NC(=O)c1ccc(Cl)cc1`, the result in the data set filed under Rattus norvegicus [1] and in the data set filed under Rattus norvegicus [2] was inactive.

On to `N#Cc1c(NC(=O)C2CCCCC2)sc2c1CCCC2`, for which the selectivity ratio in data set [5] and in data set [6] was 4 throughout. Besides, the result in the data set filed under Rattus norvegicus [1] and in the data set listed under Rattus norvegicus [2] was inactive.

As to `CCc1c(C)sc(NC(=O)c2ccc(-c3ccccc3)cc2)c1C(=O)OC`, the result in the data set listed under Rattus norvegicus [1] and in the data set filed under Rattus norvegicus [2] was inactive.

In the case of `CCCOC(=O)c1c(NC(=O)c2ccc(Cl)cc2)sc(C)c1CC`, the outcome in the data set listed under Rattus norvegicus [1] and in the data set filed under Rattus norvegicus [2] was inactive.

Regarding `CCc1c(C)sc(N(C)C(=O)c2ccc(Cl)cc2)c1C(=O)OC`, the result in the data set listed under Rattus norvegicus [1] and in the data set filed under Rattus norvegicus [2] was inactive.

Consider `CCc1c(C)sc(NC(=O)c2ccc(I)cc2)c1C(=O)OC`, for which the result in the data set listed under Rattus norvegicus [1] and in the data set filed under Rattus norvegicus [2] was inactive.

Consider `CCc1c(C)sc(NC(=O)c2ccccc2Cl)c1C(=O)OC`, for which the result in the data set filed under Rattus norvegicus [1] and in the data set listed under Rattus norvegicus [2] was inactive.

For the compound `CCc1c(C)sc(NC(=O)C2CCCCC2)c1C(=O)OC`, the Activity stood at 15.1% in the data set filed under Rattus norvegicus [3] and 2% in the data set listed under Rattus norvegicus [4]. In the data set on NIH3T3, this compound returned an IC50 of 33 µM.

A word on the IC50: it is the concentration at which inhibition is half-maximal. Low values mean greater potency in that assay, high ones weaker potency in that assay.

Source of the values: ChEMBL document CHEMBL2346598, “Synthesis and pharmacological characterization of 2-(acylamino)thiophene derivatives as metabolically stable, orally effective, positive allosteric modulators of the GABAB receptor” (J Med Chem, 2013).
